In US10723711B2, “1,1,1-trifluoro-3-hydroxypropan-2-yl carbamate derivatives and 1,1,1-trifluoro-4-hydroxybutan-2-yl carbamate derivatives as MAGL inhibitors” (PFIZER INC., priority 2015, dated 2020):
Read-outs that look alike come from different tables or passages of the source.

Key:
Assay type in all cases: biochemical
[1] = target: T1, human recombinant Monoacylglycerol Lipase (Homo sapiens, UniProt Q99685); test: MAGL inhibition enzymatic assay, fluorogenic substrate 7-HCA, IC50 at T=0 min or after 30 minute incubation (T=30 min); conditions: geometric mean of 2-4 determinations unless otherwise indicated
T1 sequence (Q99685 1-303): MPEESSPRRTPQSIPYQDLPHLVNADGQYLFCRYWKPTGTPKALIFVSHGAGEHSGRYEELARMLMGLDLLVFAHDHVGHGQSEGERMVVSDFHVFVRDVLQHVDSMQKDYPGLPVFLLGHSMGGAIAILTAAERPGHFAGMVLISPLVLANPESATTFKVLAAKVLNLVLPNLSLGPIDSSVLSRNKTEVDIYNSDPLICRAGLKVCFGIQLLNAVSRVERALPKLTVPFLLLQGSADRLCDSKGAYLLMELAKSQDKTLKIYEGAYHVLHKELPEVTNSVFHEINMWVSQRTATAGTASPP
Experimental: An equal volume of 7-HCA in assay buffer with 10% DMSO was added either immediately (T=0 min) or after a 30 minute incubation (T=30 min) to initiate the reaction. […] After these dilutions, the final concentration of the test compound ranged from 3 μM to 0.03 nM. […] IC50 values were generated based on a four parameter fit model using ABASE software from IDBS.

[2] = target: T1, human recombinant Monoacylglycerol Lipase; test: MAGL inactivation, enzyme progress curves, kinact/KI; conditions: from enzyme progress curves, T = 0 min protocol; geometric mean of 2-4 determinations unless otherwise indicated
Experimental: Assessment of MAGL inhibition utilizes human recombinant Monoacylglycerol Lipase and the fluorogenic substrate 7-hydroxycoumarinyl arachidonate (7-HCA, Biomol ST-502). 400 nL of a test compound at decreasing concentration (ranging from 150 μM down to 1.5 nM) was spotted into a 384-well back plate (PerkinElmer, 6007279) using a Labcyte Echo, followed by addition of 10 μL of MAGL enzyme in assay buffer (50 mM HEPES, pH 7.4, 100 mM NaCl, 5 mM MgCl2, 0.1% Triton X-100 and 25% glycerin). An equal volume of 7-HCA in assay buffer with 10% DMSO was added either immediately (T=0 min) or after a 30 minute incubation (T=30 min) to initiate the reaction. The final concentration of MAGL enzyme was […] and 7-HCA substrate was 5 μM. After these dilutions, the final concentration of the test compound ranged from 3 μM to 0.03 nM. The reaction was allowed to progress for 60 minutes, after which the plate was read at an Ex/Em of 340/465. Percent inhibitions were calculated based on control wells containing no compound (0% inhibition) and a control compound (e.g., a MAGL inhibitor whose activity is known or was previously reported in the literature, such as one with about 100% inhibition). IC50 values were generated based on a four parameter fit model using ABASE software from IDBS. See e.g., Wang, Y. et al., “A Fluorescence-Based Assay for Monoacylglycerol Lipase Compatible with Inhibitor Screening,” Assay and Drug Development Technologies, 2008, Vol. 6 (3) pp 387-393 (reporting an assay for measuring MAGL activity).
To measure MAGL inactivation, the same protocol for the (T=0 min) MAGL inhibition IC50 assay was performed with data collected every minute to acquire enzyme progress curves at decreasing concentrations of compound.

[3] = target: T2, human recombinant FAAH (Homo sapiens, UniProt O00519); test: FAAH inhibition enzymatic assay, fluorescent substrate Arachidonoyl-AMC, 30 minute incubation; conditions: T = 30 min (30 minute incubation); geometric mean of 2-4 determinations unless otherwise indicated
T2 construct: purchased Cayman 10010183
T2 sequence (O00519 1-579): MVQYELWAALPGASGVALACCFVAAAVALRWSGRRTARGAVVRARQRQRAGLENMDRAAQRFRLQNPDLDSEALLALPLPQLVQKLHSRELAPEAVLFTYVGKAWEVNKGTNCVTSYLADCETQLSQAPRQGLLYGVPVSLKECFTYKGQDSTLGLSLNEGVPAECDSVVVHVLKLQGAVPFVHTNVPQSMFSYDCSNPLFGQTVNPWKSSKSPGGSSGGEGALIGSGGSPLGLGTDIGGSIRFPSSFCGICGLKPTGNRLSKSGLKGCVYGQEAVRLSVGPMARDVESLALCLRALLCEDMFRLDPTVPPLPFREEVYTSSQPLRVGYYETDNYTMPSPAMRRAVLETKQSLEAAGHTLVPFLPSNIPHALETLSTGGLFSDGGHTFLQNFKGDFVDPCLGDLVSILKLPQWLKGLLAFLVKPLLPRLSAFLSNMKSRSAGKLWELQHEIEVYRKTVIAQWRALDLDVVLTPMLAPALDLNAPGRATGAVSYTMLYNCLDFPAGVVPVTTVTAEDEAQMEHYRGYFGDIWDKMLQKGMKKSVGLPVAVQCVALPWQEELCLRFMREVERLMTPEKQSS
Experimental: Assessment of FAAH inhibition utilizes human recombinant FAAH and the fluorescent substrate, Arachidonoyl-AMC. 400 nL of a test compound at decreasing concentrations was spotted into a 384-well back plate (PerkinElmer, 6007279) using a Labcyte Echo, followed by addition of 10 μl of FAAH enzyme (Cayman 10010183) in assay buffer (50 mM Tris, pH 9.0, 1 mM EDTA). After a 30 minute incubation at room temperature, 10 μL of Arachidonyl-AMCA was added in assay buffer with 16% DMSO. Final concentration of FAAH enzyme was 0.0125 Units and AAMCA substrate was used at the Km of 5 μM. […] The reaction was allowed to progress for 60 minutes, after which the plate was read on a Molecular Devices FlexStation reader at an Ex/Em of 355/460. Percent inhibitions were calculated based on controls wells containing either no compound (0% inhibition) or a control compound (e.g., an FAAH inhibitor whose activity is known or was previously reported in the literature, such as one with about 100% inhibition). IC50 values were generated based on a four parameter fit model using ABASE software from IDBS.

[4] = T = 0 min (substrate added immediately), read-out: MAGL (T = 0 min) IC50
[5] = T = 30 min (30 minute incubation), read-out: MAGL (T = 30 min) IC50

Row | Structure (SMILES) | IC50 [1, 4] | IC50 [1, 5] | MAGL kinact/KI [2] | IC50 [3]
1 | O=C(O[C@H](CO)C(F)(F)F)N1CCC2(CC1)CC(c1ccccc1)CO2 (single isomer, unassigned) [Example 96] | 62 nM | 5 nM | 18560 1/s per M | 9520 nM
2 | CN(C1COC2(CCN(C(=O)O[C@H](CO)C(F)(F)F)CC2)C1)S(=O)(=O)c1ccc(F)cc1 (single isomer, unassigned) [Example 110] | 70 nM | 6 nM | 8796 1/s per M | 7090 nM
3 | CN(C1COC2(CCN(C(=O)O[C@H](CO)C(F)(F)F)CC2)C1)S(=O)(=O)c1ccc(F)cc1 (single isomer, unassigned) [Example 111] | 28 nM | 2 nM | 33483 1/s per M | > 30000 nM
4 | O=C(OC(C(F)(F)F)C(F)(F)CO)N1CCC2(CC1)CN(S(=O)(=O)c1ccc(F)cc1)CCO2 (single isomer, unassigned; ent-1) [Example 20, 1,1,1,3,3-Pentafluoro-4-hydroxybutan-2-yl 4-[(4-fluorophenyl)sulfonyl]-1-oxa-4,9-diazaspiro[5.5]undecane-9-carboxylate, ENT-1] | 61 nM | 6 nM | 4611 1/s per M | > 30000 nM
5 | O=C(O[C@H](CO)C(F)(F)F)N1C[C@@H]2[C@H](C1)[C@H]2c1ccn(-c2ccc(F)cc2)n1 [Example 3, (2R)-1,1,1-Trifluoro-3-hydroxypropan-2-yl (1α,5α,6α)-6-[1-(4-fluorophenyl)-1H-pyrazol-3-yl]-3-azabicyclo[3.1.0]hexane-3-carboxylate] | 35 nM | 3 nM | 20005 1/s per M | 2480 nM
6 | O=C(O[C@H](CO)C(F)(F)F)N1CCC2(CC1)CN(S(=O)(=O)c1ccccc1)CCO2 [Example 7, (2R)-1,1,1-Trifluoro-3-hydroxypropan-2-yl 4-(phenylsulfonyl)-1-oxa-4,9-diazaspiro[5.5]undecane-9-carboxylate] | 29 nM | 3 nM | 29124 1/s per M | > 24100 nM
7 | O=C(OC(C(F)(F)F)C(F)(F)CO)N1C[C@@H]2[C@H](C1)[C@H]2c1ccn(-c2ccc(F)cc2)n1 (stereo partly drawn) [Example 39] | 34 nM | 2 nM | 9893 1/s per M | 6010 nM

The remaining compounds from weak to strong by IC50 [1, 4], led by results:

Row | IC50 [1, 4] | IC50 [1, 5] | MAGL kinact/KI [2] | IC50 [3] | Structure (SMILES)
8 | 188 nM | 17 nM | 1801 1/s per M | > 30000 nM | O=C(O[C@H](CO)C(F)(F)F)N1CCC2(CCCN(S(=O)(=O)c3ccc(F)cc3)C2)CC1 [Example 12, (2R)-1,1,1-Trifluoro-3-hydroxypropan-2-yl 2-[(4-fluorophenyl)sulfonyl]-2,9-diazaspiro[5.5]undecane-9-carboxylate]
9 | 107 nM | 11 nM | 16883 1/s per M | > 30000 nM | CN(C(=O)c1ccccc1)C1COC2(CCN(C(=O)O[C@H](CO)C(F)(F)F)CC2)C1 (single isomer, unassigned) [Example 99]
10 | 86 nM | 10 nM | 5664 1/s per M | > 28700 nM | CN(C(=O)c1ccccc1)C1COC2(CCN(C(=O)O[C@H](CO)C(F)(F)F)CC2)C1 (single isomer, unassigned) [Example 100]
11 | 77 nM | 7 nM | 5205 1/s per M | > 30000 nM | O=C(O[C@H](CO)C(F)(F)F)N1CCC(Oc2ccc(C3CC3)cn2)CC1 [Example 10, (2R)-1,1,1-Trifluoro-3-hydroxypropan-2-yl 4-[(5-cyclopropylpyridin-2-yl)oxy]piperidine-1-carboxylate]
12 | 76 nM | 6 nM | 12483 1/s per M | 25700 nM | O=C(O[C@H](CO)C(F)(F)F)N1CCC2(CC1)CC(Oc1ccccn1)CO2 (single isomer, unassigned) [Example 130]
13 | 57 nM | 5 nM | 6754 1/s per M | > 30000 nM | O=C(O[C@H](CO)C(F)(F)F)N1CCC2(CC1)C[C@H](NS(=O)(=O)c1ccccc1)CO2 [Example 8, (2R)-1,1,1-Trifluoro-3-hydroxypropan-2-yl (3S)-3-[(phenylsulfonyl)amino]-1-oxa-8-azaspiro[4.5]decane-8-carboxylate]
14 | 56 nM | 8 nM | 6109 1/s per M | 1140 nM | O=C(O[C@H](CO)C(F)(F)F)N1CCC(c2ccn(-c3ccc(F)cc3)n2)CC1 [Example 2, (2R)-1,1,1-Trifluoro-3-hydroxypropan-2-yl 4-[1-(4-fluorophenyl)-1H-pyrazol-3-yl]piperidine-1-carboxylate]
15 | 51 nM | 3 nM | 15960 1/s per M | 10700 nM | CN(C1COC2(CCN(C(=O)O[C@H](CO)C(F)(F)F)CC2)C1)S(=O)(=O)c1cccc(F)c1 (single isomer, unassigned) [Example 108]
16 | 31 nM | 2 nM | 16949 1/s per M | 7730 nM | O=C(O)C(F)(F)F.O=C(O[C@H](CO)C(F)(F)F)N1CCC(Oc2nccc3ccccc23)CC1 [Example 26, (2R)-1,1,1-Trifluoro-3-hydroxypropan-2-yl 4-(isoquinolin-1-yloxy)piperidine-1-carboxylate, trifluoroacetic acid salt]
17 | 21 nM | 2 nM | 34918 1/s per M | > 30000 nM | CN(C1COC2(CCN(C(=O)O[C@H](CO)C(F)(F)F)CC2)C1)S(=O)(=O)c1cccc(F)c1 (single isomer, unassigned) [Example 109]
18 | 14 nM | 1 nM | 147964 1/s per M | > 30000 nM | O=C(O[C@H](CO)C(F)(F)F)N1CCC2(CC1)CN(S(=O)(=O)c1cccc(F)c1)CCO2 [Example 11, (2R)-1,1,1-Trifluoro-3-hydroxypropan-2-yl 4-[(3-fluorophenyl)sulfonyl]-1-oxa-4,9-diazaspiro[5.5]undecane-9-carboxylate]
